Measurements as given in ChEMBL document CHEMBL2010722, “Structure-activity relationship study of beta-carboline derivatives as haspin kinase inhibitors” (Bioorg Med Chem Lett, 2012).

Key:
[1] = biological target: Tyrosine-protein kinase Blk (Homo sapiens) (UniProt P51451); assay: Inhibition of BLK at 10 uM
[2] = biological target: Discoidin domain-containing receptor 2 (Homo sapiens) (UniProt Q16832); assay: Inhibition of DDR2 at 10 uM
[3] = test system: Epidermal growth factor receptor (Homo sapiens), P00533 [L858R,T790M]; assay: Inhibition of EGFR T790M/L858R mutant at 10 uM; type: protein assay
[4] = biological target: Tyrosine-protein kinase Fes/Fps (Homo sapiens) (UniProt P07332); assay: Inhibition of FES at 10 uM
[5] = biological target: Insulin receptor-related protein (Homo sapiens) (UniProt P14616); assay: Inhibition of IRR at 10 uM
[6] = test system: Mast/stem cell growth factor receptor Kit (Homo sapiens), P10721 [T670I]; assay: Inhibition of KIT T670I mutant at 10 uM
[7] = biological target: Protein-tyrosine kinase 2-beta (Homo sapiens) (UniProt Q14289); assay: Inhibition of PYK2 at 10 uM
[8] = biological target: Tyrosine-protein kinase receptor TYRO3 (Homo sapiens) (UniProt Q06418); assay: Inhibition of TYRO3 at 10 uM
[9] = biological target: Serine/threonine-protein kinase B-raf (Homo sapiens) (UniProt P15056); assay: Inhibition of BRAF at 10 uM
[10] = biological target: Casein kinase I isoform epsilon (Homo sapiens) (UniProt P49674); assay: Inhibition of CK1e at 10 uM
[11] = biological target: Mitogen-activated protein kinase kinase kinase 8 (Homo sapiens) (UniProt P41279); assay: Inhibition of COT at 10 uM
[12] = biological target: Interleukin-1 receptor-associated kinase 1 (Homo sapiens) (UniProt P51617); assay: Inhibition of IRAK1 at 10 uM
[13] = biological target: Mitogen-activated protein kinase 8 (Homo sapiens) (UniProt P45983); assay: Inhibition of JNK1 at 10 uM
[14] = biological target: Dual specificity mitogen-activated protein kinase kinase 6 (Homo sapiens) (UniProt P52564); assay: Inhibition of MAP2K6 at 10 uM
[15] = biological target: MAP/microtubule affinity-regulating kinase 4 (Homo sapiens) (UniProt Q96L34); assay: Inhibition of MARK4 at 10 uM
[16] = biological target: Mitogen-activated protein kinase kinase kinase 9 (Homo sapiens) (UniProt P80192); assay: Inhibition of MLK1 at 10 uM
[17] = biological target: Serine/threonine-protein kinase 38 (Homo sapiens) (UniProt Q15208); assay: Inhibition of NDR1 at 10 uM
[18] = biological target: Serine/threonine-protein kinase PAK 2 (Homo sapiens) (UniProt Q13177); assay: Inhibition of PAK2 at 10 uM
[19] = biological target: Serine/threonine-protein kinase PAK 4 (Homo sapiens) (UniProt O96013); assay: Inhibition of PAK4 at 10 uM
[20] = biological target: cGMP-dependent protein kinase 1 (Homo sapiens) (UniProt Q13976); assay: Inhibition of PRKG1 at 10 uM
[21] = biological target: Protein kinase C theta type (Homo sapiens) (UniProt Q04759); assay: Inhibition of PKCq at 10 uM
[22] = biological target: Interferon-induced, double-stranded RNA-activated protein kinase (Homo sapiens) (UniProt P19525); assay: Inhibition of PKR at 10 uM
[23] = biological target: Serine/threonine-protein kinase PLK3 (Homo sapiens) (UniProt Q9H4B4); assay: Inhibition of PLK3 at 10 uM
[24] = biological target: Myosin light chain kinase 2, skeletal/cardiac muscle (Homo sapiens) (UniProt Q9H1R3); assay: Inhibition of skMLCK at 10 uM
[25] = biological target: T1, Serine/threonine-protein kinase haspin (Homo sapiens, UniProt Q8TF76)
T1 sequence (Q8TF76 whole entry): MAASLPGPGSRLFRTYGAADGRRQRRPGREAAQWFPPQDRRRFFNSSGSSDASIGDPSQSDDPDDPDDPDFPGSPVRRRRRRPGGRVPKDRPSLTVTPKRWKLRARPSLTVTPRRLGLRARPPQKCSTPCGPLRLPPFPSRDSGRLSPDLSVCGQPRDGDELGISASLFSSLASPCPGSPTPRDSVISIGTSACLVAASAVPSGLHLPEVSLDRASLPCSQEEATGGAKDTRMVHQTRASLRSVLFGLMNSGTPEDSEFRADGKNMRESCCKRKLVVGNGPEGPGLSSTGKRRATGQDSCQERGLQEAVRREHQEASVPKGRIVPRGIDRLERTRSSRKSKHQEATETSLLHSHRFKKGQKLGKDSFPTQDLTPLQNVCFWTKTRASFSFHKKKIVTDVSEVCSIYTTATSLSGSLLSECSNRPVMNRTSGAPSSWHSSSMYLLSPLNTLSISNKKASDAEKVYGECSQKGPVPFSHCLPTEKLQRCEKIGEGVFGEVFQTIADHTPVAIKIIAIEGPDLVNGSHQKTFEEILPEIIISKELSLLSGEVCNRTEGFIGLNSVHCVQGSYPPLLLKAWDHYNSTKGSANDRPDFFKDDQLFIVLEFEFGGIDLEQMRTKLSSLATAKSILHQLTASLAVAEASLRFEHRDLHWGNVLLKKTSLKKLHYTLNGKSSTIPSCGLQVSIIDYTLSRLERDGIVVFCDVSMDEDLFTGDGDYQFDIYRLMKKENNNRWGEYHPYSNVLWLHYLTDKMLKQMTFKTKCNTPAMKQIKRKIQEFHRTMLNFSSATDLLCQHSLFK

[26] = biological target: T2, Dual specificity tyrosine-phosphorylation-regulated kinase 2 (Homo sapiens, UniProt Q92630)
T2 sequence (Q92630 whole entry): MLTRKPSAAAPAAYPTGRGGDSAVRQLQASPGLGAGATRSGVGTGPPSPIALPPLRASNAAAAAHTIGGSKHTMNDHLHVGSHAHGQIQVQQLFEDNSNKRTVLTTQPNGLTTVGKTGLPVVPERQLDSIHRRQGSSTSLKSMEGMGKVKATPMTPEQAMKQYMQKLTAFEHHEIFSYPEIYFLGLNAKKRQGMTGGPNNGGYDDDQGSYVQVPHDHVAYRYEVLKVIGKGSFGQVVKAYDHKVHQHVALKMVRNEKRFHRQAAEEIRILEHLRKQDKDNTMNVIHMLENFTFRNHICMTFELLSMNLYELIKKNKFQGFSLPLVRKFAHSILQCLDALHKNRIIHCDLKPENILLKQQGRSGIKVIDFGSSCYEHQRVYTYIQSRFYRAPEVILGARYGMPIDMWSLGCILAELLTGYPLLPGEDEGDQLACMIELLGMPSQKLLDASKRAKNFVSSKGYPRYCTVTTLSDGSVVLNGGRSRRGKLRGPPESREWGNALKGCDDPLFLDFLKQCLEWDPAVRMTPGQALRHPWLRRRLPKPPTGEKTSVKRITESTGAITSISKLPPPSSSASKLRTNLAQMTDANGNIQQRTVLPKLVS

[27] = biological target: Dual specificity tyrosine-phosphorylation-regulated kinase 1A (Homo sapiens) (UniProt Q13627); conditions: 10 uM

Tyrosine-protein kinase receptor TYRO3 (Homo sapiens), sequence (Q06418 whole entry): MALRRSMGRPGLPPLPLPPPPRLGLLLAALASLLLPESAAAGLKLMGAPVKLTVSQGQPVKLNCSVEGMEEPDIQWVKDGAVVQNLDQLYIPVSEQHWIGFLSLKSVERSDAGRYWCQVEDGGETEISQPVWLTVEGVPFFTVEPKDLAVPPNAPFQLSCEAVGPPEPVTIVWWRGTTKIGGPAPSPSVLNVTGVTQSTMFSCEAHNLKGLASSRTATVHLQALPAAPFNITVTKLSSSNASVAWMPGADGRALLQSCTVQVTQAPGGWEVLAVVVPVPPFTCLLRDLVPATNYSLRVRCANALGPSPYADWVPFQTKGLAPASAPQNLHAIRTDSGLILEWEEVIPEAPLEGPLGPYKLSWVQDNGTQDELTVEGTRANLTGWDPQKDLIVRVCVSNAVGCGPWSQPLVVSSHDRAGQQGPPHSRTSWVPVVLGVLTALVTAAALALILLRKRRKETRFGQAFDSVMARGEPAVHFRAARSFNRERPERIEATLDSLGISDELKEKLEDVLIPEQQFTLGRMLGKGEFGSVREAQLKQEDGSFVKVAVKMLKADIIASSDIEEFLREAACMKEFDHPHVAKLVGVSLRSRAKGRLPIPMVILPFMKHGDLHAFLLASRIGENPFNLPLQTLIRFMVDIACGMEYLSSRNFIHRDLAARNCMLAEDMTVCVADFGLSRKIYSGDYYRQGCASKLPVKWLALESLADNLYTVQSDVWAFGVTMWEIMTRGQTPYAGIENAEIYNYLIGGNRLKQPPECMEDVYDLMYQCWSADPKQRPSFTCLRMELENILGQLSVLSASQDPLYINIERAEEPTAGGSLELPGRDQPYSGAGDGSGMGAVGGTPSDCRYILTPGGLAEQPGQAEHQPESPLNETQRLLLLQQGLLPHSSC
Serine/threonine-protein kinase PLK3 (Homo sapiens), sequence (Q9H4B4 whole entry, looked up): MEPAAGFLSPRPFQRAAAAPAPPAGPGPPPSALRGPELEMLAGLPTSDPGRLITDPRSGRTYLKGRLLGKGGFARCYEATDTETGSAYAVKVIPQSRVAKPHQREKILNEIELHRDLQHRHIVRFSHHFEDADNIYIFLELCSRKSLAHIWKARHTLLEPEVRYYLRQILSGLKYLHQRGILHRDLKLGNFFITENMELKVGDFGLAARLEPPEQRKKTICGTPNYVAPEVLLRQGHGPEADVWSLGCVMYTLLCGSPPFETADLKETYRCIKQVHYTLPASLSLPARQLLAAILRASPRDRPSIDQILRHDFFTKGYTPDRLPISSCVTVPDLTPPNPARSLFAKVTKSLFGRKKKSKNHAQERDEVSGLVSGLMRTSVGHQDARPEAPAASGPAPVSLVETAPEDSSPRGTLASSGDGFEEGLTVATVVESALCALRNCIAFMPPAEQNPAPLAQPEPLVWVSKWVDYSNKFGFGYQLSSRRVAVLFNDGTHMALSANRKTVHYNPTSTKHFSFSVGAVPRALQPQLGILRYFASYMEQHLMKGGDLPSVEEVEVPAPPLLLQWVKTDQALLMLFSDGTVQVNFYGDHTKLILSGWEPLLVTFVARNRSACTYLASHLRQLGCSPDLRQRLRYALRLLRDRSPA
MAP/microtubule affinity-regulating kinase 4 (Homo sapiens), sequence (Q96L34 whole entry): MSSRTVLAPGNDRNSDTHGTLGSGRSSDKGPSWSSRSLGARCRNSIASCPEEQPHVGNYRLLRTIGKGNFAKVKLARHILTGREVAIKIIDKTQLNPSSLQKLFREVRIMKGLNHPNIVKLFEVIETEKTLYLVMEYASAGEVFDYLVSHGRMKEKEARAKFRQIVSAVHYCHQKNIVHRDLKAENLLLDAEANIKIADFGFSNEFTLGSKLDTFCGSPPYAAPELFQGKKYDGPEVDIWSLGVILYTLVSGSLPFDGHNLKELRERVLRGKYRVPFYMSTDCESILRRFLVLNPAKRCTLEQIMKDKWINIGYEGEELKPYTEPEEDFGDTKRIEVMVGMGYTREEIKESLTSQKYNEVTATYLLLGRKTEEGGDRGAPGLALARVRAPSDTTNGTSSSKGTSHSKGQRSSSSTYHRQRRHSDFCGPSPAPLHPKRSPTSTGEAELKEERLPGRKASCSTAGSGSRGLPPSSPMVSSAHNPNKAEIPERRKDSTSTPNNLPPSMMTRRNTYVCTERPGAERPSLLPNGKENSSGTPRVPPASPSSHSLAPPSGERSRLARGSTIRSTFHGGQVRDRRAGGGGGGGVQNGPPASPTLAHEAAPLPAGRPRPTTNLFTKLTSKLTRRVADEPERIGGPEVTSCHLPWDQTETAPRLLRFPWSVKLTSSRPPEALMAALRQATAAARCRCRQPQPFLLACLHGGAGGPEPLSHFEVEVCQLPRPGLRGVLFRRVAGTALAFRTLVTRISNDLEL
Tyrosine-protein kinase Blk (Homo sapiens), sequence (P51451 2-505 limits assumed): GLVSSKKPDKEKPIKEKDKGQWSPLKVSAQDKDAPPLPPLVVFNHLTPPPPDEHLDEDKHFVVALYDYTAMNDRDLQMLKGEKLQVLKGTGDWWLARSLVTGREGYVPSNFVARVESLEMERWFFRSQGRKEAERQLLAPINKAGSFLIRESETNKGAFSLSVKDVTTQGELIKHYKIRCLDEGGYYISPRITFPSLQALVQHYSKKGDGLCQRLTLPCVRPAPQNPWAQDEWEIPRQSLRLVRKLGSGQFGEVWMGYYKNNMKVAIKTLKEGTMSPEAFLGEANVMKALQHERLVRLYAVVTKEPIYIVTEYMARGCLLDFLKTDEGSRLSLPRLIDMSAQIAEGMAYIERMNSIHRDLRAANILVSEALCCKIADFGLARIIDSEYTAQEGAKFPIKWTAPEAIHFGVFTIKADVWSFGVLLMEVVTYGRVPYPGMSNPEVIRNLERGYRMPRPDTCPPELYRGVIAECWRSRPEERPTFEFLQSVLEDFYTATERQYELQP
Protein kinase C theta type (Homo sapiens), sequence (Q04759 whole entry, looked up): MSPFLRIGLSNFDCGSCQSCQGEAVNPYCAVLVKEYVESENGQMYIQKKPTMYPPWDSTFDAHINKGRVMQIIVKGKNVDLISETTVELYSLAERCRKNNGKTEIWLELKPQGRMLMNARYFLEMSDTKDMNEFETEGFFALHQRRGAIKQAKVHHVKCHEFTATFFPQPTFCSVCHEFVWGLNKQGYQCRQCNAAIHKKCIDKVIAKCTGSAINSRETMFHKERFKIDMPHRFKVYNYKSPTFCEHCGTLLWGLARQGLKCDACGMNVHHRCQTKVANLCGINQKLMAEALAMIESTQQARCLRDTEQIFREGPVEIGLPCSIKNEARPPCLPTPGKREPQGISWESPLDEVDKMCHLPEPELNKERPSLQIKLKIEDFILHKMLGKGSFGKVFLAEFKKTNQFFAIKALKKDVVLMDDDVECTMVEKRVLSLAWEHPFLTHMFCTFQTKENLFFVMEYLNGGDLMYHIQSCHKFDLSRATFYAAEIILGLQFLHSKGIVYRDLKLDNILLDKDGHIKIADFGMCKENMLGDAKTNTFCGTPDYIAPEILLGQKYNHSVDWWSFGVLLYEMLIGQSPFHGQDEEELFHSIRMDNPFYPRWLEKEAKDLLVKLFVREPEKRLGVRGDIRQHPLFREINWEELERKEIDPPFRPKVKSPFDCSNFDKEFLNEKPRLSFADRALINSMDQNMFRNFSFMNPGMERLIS
Myosin light chain kinase 2, skeletal/cardiac muscle (Homo sapiens), sequence (Q9H1R3 whole entry): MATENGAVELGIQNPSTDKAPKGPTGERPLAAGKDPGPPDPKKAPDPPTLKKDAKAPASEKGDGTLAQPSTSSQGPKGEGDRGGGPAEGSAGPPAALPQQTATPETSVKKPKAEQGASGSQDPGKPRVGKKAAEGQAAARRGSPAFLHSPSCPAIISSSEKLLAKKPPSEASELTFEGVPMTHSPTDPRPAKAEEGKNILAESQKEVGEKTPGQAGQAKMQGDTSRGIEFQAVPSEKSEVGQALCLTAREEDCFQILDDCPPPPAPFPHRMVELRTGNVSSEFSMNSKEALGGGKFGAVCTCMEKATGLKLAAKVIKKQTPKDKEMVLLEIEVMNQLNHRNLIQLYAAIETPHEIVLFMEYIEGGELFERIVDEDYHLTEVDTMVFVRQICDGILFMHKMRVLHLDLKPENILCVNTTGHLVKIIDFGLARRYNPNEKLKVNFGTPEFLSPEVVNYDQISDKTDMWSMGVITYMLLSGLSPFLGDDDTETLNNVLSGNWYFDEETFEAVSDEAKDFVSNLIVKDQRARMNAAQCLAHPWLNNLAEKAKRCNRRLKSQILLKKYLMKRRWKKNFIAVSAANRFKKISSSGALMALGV
cGMP-dependent protein kinase 1 (Homo sapiens), sequence (Q13976 whole entry): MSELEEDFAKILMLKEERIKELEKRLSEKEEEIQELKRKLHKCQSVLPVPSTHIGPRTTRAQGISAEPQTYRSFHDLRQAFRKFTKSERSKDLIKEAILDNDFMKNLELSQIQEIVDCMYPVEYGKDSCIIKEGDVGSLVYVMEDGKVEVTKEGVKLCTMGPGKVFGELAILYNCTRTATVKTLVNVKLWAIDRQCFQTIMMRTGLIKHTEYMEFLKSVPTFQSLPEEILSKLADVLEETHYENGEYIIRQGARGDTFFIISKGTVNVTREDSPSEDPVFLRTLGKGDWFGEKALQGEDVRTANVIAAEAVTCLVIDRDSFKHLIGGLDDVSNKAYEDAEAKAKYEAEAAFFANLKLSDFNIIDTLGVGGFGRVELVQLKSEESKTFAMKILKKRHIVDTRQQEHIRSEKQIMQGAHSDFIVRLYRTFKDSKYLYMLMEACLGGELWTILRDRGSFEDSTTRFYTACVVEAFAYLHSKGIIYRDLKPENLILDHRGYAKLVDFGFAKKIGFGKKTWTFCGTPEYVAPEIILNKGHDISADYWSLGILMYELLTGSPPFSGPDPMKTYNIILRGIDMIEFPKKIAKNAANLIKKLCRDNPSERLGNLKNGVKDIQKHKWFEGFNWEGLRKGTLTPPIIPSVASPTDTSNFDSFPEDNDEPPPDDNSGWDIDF

COc1ccc2c3ccnc(C(F)(F)F)c3n(CCCCN)c2c1
inhibition [1]: 4%
inhibition [2]: 7%
inhibition [3]: 4%
inhibition [4]: 4%
inhibition [5]: 0%
inhibition [6]: 16%
inhibition [7]: 0%
inhibition [8]: 16%
inhibition [9]: 0%
inhibition [10]: 41%
inhibition [11]: 7%
inhibition [12]: 53%
inhibition [13]: 44%
inhibition [14]: 46%
inhibition [15]: 50%
inhibition [16]: 0%
inhibition [17]: 4%
inhibition [18]: 13%
inhibition [19]: 13%
inhibition [20]: 80%
inhibition [21]: 42%
inhibition [22]: 6%
inhibition [23]: 10%
inhibition [24]: 34%
IC50 [25]: 0.1 µM
IC50 [26]: 15 µM
inhibition [27]: 100%
